Laboratory results from the supplement of paper PMC10307832.

Assays:
Assay in all cases: relative viability (nuclei count vs DMSO), 5 days (fraction); higher = more cells survive
[1] = compound: C1CC1C(=O)NC2=NNC3=C2C=CC(=C3)C4=CC(=CC=C4)C(=O)NC5CC5 [XMD13-2] + CC(=O)c1c(C)c2cnc(Nc3ccc(N4CCNCC4)cn3)nc2n(C2CCCC2)c1=O [Palbociclib] (partner 0.5 µM)
In short: (§1)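 Cells from lung cancer lines were seeded into 1536-well plates and, one day later, dosed by pin tool. Treatments were either a single drug or a fixed dose of an anchor drug with five library-drug doses (not always all listed) in √10 steps. After 5 days, nuclei were stained in a one-step fixation (final 0.05% Triton X-100, 1% formaldehyde, 1 ug/ml Hoechst) and counted on 4× images, and relative viability is the treated-to-vehicle nuclei ratio, as the median of duplicate plates.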

[2] = compound: Cc1ccc(C(=O)Nc2cccc(C(F)(F)F)c2)cc1Nc1cncc(C(N)=O)c1 [ALW-II-49-7] + N=C(N)NC(=N)NCCc1ccccc1 [Phenformin] (partner 250 µM)
In short: as §1

[3] = compound: Cc1nc(Nc2ncc(C(=O)Nc3c(C)cccc3Cl)s2)cc(N2CCN(CCO)CC2)n1 [Dasatinib] + CCNC(=O)c1noc(-c2cc(C(C)C)c(O)cc2O)c1-c1ccc(CN2CCOCC2)cc1 [Luminespib] (partner 0.01 µM)
In short: as §1

[4] = compound: Cc1nc(Nc2ncc(C(=O)Nc3c(C)cccc3Cl)s2)cc(N2CCN(CCO)CC2)n1 [Dasatinib] + Nc1nc2[nH]cc(CCc3ccc(C(=O)N[C@@H](CCC(=O)O)C(=O)O)cc3)c2c(=O)[nH]1 [Pemetrexed] (partner 0.2 µM)
In short: as §1

NCI-H23
relative viability ([1]; first compound 0.05 µM): 0.572 | relative viability ([1]; first compound 0.1581 µM): 0.514 | relative viability ([1]; first compound 0.5 µM): 0.502 | relative viability ([1]; first compound 1.581 µM): 0.58 | relative viability ([1]; first compound 5 µM): 0.658 | relative viability ([2]; first compound 0.08 µM): 0.855 | relative viability ([2]; first compound 0.253 µM): 0.759 | relative viability ([2]; first compound 0.8 µM): 0.705 | relative viability ([2]; first compound 2.53 µM): 0.857 | relative viability ([2]; first compound 8 µM): 0.898 | relative viability ([3]; first compound 0.005 µM): 0.233 | relative viability ([3]; first compound 0.01581 µM): 0.195 | relative viability ([3]; first compound 0.05 µM): 0.217 | relative viability ([3]; first compound 0.1581 µM): 0.19 | relative viability ([3]; first compound 0.5 µM): 0.187 | relative viability ([4]; first compound 0.005 µM): 0.549 | relative viability ([4]; first compound 0.01581 µM): 0.528 | relative viability ([4]; first compound 0.05 µM): 0.59 | relative viability ([4]; first compound 0.1581 µM): 0.402 | relative viability ([4]; first compound 0.5 µM): 0.384

NCI-H1975
relative viability ([1]; first compound 0.05 µM): 0.77 | relative viability ([1]; first compound 0.1581 µM): 0.607 | relative viability ([1]; first compound 0.5 µM): 0.538 | relative viability ([1]; first compound 1.581 µM): 0.678 | relative viability ([1]; first compound 5 µM): 0.61 | relative viability ([2]; first compound 0.08 µM): 0.393 | relative viability ([2]; first compound 0.253 µM): 0.461 | relative viability ([2]; first compound 0.8 µM): 0.39 | relative viability ([2]; first compound 2.53 µM): 0.415 | relative viability ([2]; first compound 8 µM): 0.412 | relative viability ([3]; first compound 0.005 µM): 0.177 | relative viability ([3]; first compound 0.01581 µM): 0.212 | relative viability ([3]; first compound 0.05 µM): 0.155 | relative viability ([3]; first compound 0.1581 µM): 0.178 | relative viability ([3]; first compound 0.5 µM): 0.139 | relative viability ([4]; first compound 0.005 µM): 0.284 | relative viability ([4]; first compound 0.01581 µM): 0.286 | relative viability ([4]; first compound 0.05 µM): 0.297 | relative viability ([4]; first compound 0.1581 µM): 0.239 | relative viability ([4]; first compound 0.5 µM): 0.201

COR-L 105
relative viability ([1]; first compound 0.05 µM): 0.405 | relative viability ([1]; first compound 0.1581 µM): 0.412 | relative viability ([1]; first compound 0.5 µM): 0.4 | relative viability ([1]; first compound 1.581 µM): 0.404 | relative viability ([1]; first compound 5 µM): 0.42 | relative viability ([2]; first compound 0.08 µM): 0.423 | relative viability ([2]; first compound 0.253 µM): 0.48 | relative viability ([2]; first compound 0.8 µM): 0.471 | relative viability ([2]; first compound 2.53 µM): 0.466 | relative viability ([2]; first compound 8 µM): 0.47 | relative viability ([3]; first compound 0.005 µM): 0.67 | relative viability ([3]; first compound 0.01581 µM): 0.588 | relative viability ([3]; first compound 0.05 µM): 0.637 | relative viability ([3]; first compound 0.1581 µM): 0.571 | relative viability ([3]; first compound 0.5 µM): 0.22 | relative viability ([4]; first compound 0.005 µM): 0.869 | relative viability ([4]; first compound 0.01581 µM): 1.1 | relative viability ([4]; first compound 0.05 µM): 0.783 | relative viability ([4]; first compound 0.1581 µM): 0.605 | relative viability ([4]; first compound 0.5 µM): 0.361

LK-2
relative viability ([1]; first compound 0.05 µM): 0.666 | relative viability ([1]; first compound 0.1581 µM): 0.557 | relative viability ([1]; first compound 0.5 µM): 0.698 | relative viability ([1]; first compound 1.581 µM): 0.776 | relative viability ([1]; first compound 5 µM): 0.593 | relative viability ([2]; first compound 0.253 µM): 0.476 | relative viability ([2]; first compound 0.8 µM): 0.388 | relative viability ([2]; first compound 2.53 µM): 0.48 | relative viability ([2]; first compound 8 µM): 0.349 | relative viability ([3]; first compound 0.005 µM): 0.188 | relative viability ([3]; first compound 0.01581 µM): 0.194 | relative viability ([3]; first compound 0.05 µM): 0.156 | relative viability ([3]; first compound 0.1581 µM): 0.158 | relative viability ([3]; first compound 0.5 µM): 0.195 | relative viability ([4]; first compound 0.005 µM): 0.286 | relative viability ([4]; first compound 0.05 µM): 0.201 | relative viability ([4]; first compound 0.1581 µM): 0.128 | relative viability ([4]; first compound 0.5 µM): 0.202

EKVX
relative viability ([1]; first compound 0.05 µM): 0.45 | relative viability ([1]; first compound 0.1581 µM): 0.376 | relative viability ([1]; first compound 0.5 µM): 0.33 | relative viability ([1]; first compound 5 µM): 0.397 | relative viability ([2]; first compound 0.08 µM): 0.233 | relative viability ([2]; first compound 0.253 µM): 0.229 | relative viability ([2]; first compound 0.8 µM): 0.215 | relative viability ([2]; first compound 2.53 µM): 0.261 | relative viability ([2]; first compound 8 µM): 0.224 | relative viability ([3]; first compound 0.005 µM): 0.797 | relative viability ([3]; first compound 0.01581 µM): 0.665 | relative viability ([3]; first compound 0.05 µM): 0.808 | relative viability ([3]; first compound 0.1581 µM): 0.637 | relative viability ([3]; first compound 0.5 µM): 0.207 | relative viability ([4]; first compound 0.005 µM): 0.384 | relative viability ([4]; first compound 0.01581 µM): 0.376 | relative viability ([4]; first compound 0.05 µM): 0.335 | relative viability ([4]; first compound 0.1581 µM): 0.371 | relative viability ([4]; first compound 0.5 µM): 0.152

NCI-H2009
relative viability ([1]; first compound 0.05 µM): 0.244 | relative viability ([1]; first compound 0.1581 µM): 0.229 | relative viability ([1]; first compound 0.5 µM): 0.215 | relative viability ([1]; first compound 1.581 µM): 0.204 | relative viability ([1]; first compound 5 µM): 0.153 | relative viability ([2]; first compound 0.08 µM): 0.463 | relative viability ([2]; first compound 0.253 µM): 0.49 | relative viability ([2]; first compound 0.8 µM): 0.444 | relative viability ([2]; first compound 2.53 µM): 0.334 | relative viability ([2]; first compound 8 µM): 0.283 | relative viability ([3]; first compound 0.005 µM): 1.05 | relative viability ([3]; first compound 0.01581 µM): 1.02 | relative viability ([3]; first compound 0.05 µM): 1.1 | relative viability ([3]; first compound 0.1581 µM): 0.605 | relative viability ([3]; first compound 0.5 µM): 0.168 | relative viability ([4]; first compound 0.005 µM): 1.17 | relative viability ([4]; first compound 0.01581 µM): 1.09 | relative viability ([4]; first compound 0.05 µM): 1.31 | relative viability ([4]; first compound 0.1581 µM): 0.946 | relative viability ([4]; first compound 0.5 µM): 0.243

NCI-H838
relative viability ([1]; first compound 0.05 µM): 0.238 | relative viability ([1]; first compound 0.1581 µM): 0.214 | relative viability ([1]; first compound 0.5 µM): 0.249 | relative viability ([1]; first compound 1.581 µM): 0.224 | relative viability ([1]; first compound 5 µM): 0.205 | relative viability ([2]; first compound 0.08 µM): 0.412 | relative viability ([2]; first compound 0.253 µM): 0.45 | relative viability ([2]; first compound 0.8 µM): 0.628 | relative viability ([2]; first compound 2.53 µM): 0.626 | relative viability ([2]; first compound 8 µM): 0.442 | relative viability ([3]; first compound 0.005 µM): 0.265 | relative viability ([3]; first compound 0.01581 µM): 0.24 | relative viability ([3]; first compound 0.05 µM): 0.196 | relative viability ([3]; first compound 0.1581 µM): 0.189 | relative viability ([3]; first compound 0.5 µM): 0.158 | relative viability ([4]; first compound 0.005 µM): 0.26 | relative viability ([4]; first compound 0.01581 µM): 0.241 | relative viability ([4]; first compound 0.05 µM): 0.218 | relative viability ([4]; first compound 0.1581 µM): 0.176 | relative viability ([4]; first compound 0.5 µM): 0.214

NCI-H2085
relative viability ([1]; first compound 0.05 µM): 0.488 | relative viability ([1]; first compound 0.1581 µM): 0.477 | relative viability ([1]; first compound 0.5 µM): 0.481 | relative viability ([1]; first compound 1.581 µM): 0.429 | relative viability ([1]; first compound 5 µM): 0.472 | relative viability ([2]; first compound 0.08 µM): 0.754 | relative viability ([2]; first compound 0.253 µM): 0.639 | relative viability ([2]; first compound 0.8 µM): 0.677 | relative viability ([2]; first compound 2.53 µM): 0.889 | relative viability ([2]; first compound 8 µM): 0.693 | relative viability ([3]; first compound 0.005 µM): 0.411 | relative viability ([3]; first compound 0.01581 µM): 0.307 | relative viability ([3]; first compound 0.05 µM): 0.459 | relative viability ([3]; first compound 0.1581 µM): 0.275 | relative viability ([3]; first compound 0.5 µM): 0.166 | relative viability ([4]; first compound 0.005 µM): 0.743 | relative viability ([4]; first compound 0.01581 µM): 0.756 | relative viability ([4]; first compound 0.05 µM): 0.491 | relative viability ([4]; first compound 0.1581 µM): 0.23 | relative viability ([4]; first compound 0.5 µM): 0.205
